Experimental findings from patent publication US20140107176A1, “METHOD OF MODULATING A PROSTATE CANCER CELL” (Agency for Science, Technology and Research, priority 2012, published 2014) are described below.

What all share (type): cell-based, human
The test system of data set [1] is VCaP cells. As to the kind of experiment: Matrigel invasion assay with siRNA-treated VCaP cells. The settings on record: silencing of VCL, 48 hrs. As to the method: (§1) FIG. 7. ERG, HDACs, and EZH2 promote cell invasiveness and inhibit epithelial differentiation by antagonizing AR-dependent transcription of cell adhesion molecules. […] Oncomine Molecular Concept Map analysis was performed to compare ERG-associated (5 kb from TSS) androgen induced genes (>2 fold) that were identified in our study against clinical prostate cancer gene signatures available in the Oncomine database. The criteria for significant associations between node is defined as OD>=2; p-value <le-4. (B) Boxplot showing the relative mRNA expression of VCL in clinical prostate samples from the Yu et al (49) study, which has been deposited in the Oncomine database. […] (G) The effect of AR and ERG silencing on VCL gene expression was analyzed as described in FIG. 3D-E. Error bars represent S.E.M of at least 3 independent experiments. (H) The effect of TSA on the androgen-dependent gene regulation of VCL was analyzed as described in FIG. 6C. […] (I) The effect of DZNep on the androgen-dependent gene regulation of VCL was analyzed as described in FIG. 6D. […] The number of cells per high power field (HPF) that passed through the transwell was counted. […] (K) The effect of VCL suppression on cancer cell survival was assessed by flow cytometry. siRNA transfected cells were fixed prior staining with propidium iodide for flow analysis. […]

The subject of data set [2] is VCaP cells. Nature of the data set: Flow cytometry of siRNA transfected VCaP cells (subG1 cell death, BrdU proliferation). As to conditions: silencing of VCL. As to the method: as §1
(Flow cytometry measures light scatter and fluorescence of single cells or particles in a stream.)

The next data set relates to EZH2. Nature of the data set: Transcript levels of PSA and FKBP5 in VCaP cells after blocking EZH2 with DZNep (RT-qPCR). The settings on record: 3 μM DZNep, 24 or 48 hrs. As to the method:
(§2) FIG. 6. Co-recruitment of ERG, HDACs, and EZH2 to ARBS attenuates AR-dependent transcription. […] (C) VCaP cells grown in full serum (top) or depleted with hormones and treated with 10 nM DHT (bottom) were subjected to varying concentrations of TSA for 24 hours. Total RNA from the treated cells were then harvested and converted to cDNA before quantifying for gene expression levels by qPCR. GAPDH was used as an internal normalization control. Error bars represent S.E.M of at least 3 independent experiments. (D) VCaP cells grown in full serum (top) or depleted with hormone and treated with 10 nM DHT to 8 hours (bottom) were subjected to 3 μM DZNep treatment for 24 (top) or 48 (bottom) hrs. Total RNA was extracted and processed as described in FIG. 6C. Error bars represent S.E.M of at least 3 independent experiments.
(§3) The human prostate cancer cell line, VCaP (American Type Culture Collection), was maintained in DMEM supplemented with 10% fetal bovine serum (FBS), sodium pyruvate, sodium bicarbonate, and penicillin/streptomycin at 37° C. under 5% CO2. […]
(§4) Cells were harvested and total RNA was collected in TRI-reagent (Sigma) and purified with PureLink™ RNA Mini Kit (Invitrogen). […] RNA expression levels were measured using quantitative PCR and normalized to GAPDH. The primers for cDNA quantification can be found in FIG. 9. […]
In general terms: In qPCR the cycle at which signal appears reflects the starting amount.

The next data set has as its system HDACs. As to the kind of experiment: Transcript levels of PSA and FKBP5 in VCaP cells after blocking HDACs with TSA (RT-qPCR). As to conditions: 24 hours. As to the method:
as §2, §3, §4

Data set [3] deals with VCaP cells. Nature of the data set: Time course expression analysis of AR and ERG mRNA and protein in VCaP cells after DHT stimulation. As to conditions: 10 nM DHT. As to the method:
(§5) FIG. 1. Androgen stimulates distinct expression and chromatin binding profiles for AR and ERG in prostate cancer cells. Time course expression analysis of AR and ERG (A) mRNA and (B) protein levels in VCaP cells after stimulation with 10 nM DHT at various time points. Error bars represent S.E.M of at least 3 independent repeats. (C) Androgen stimulates AR and ERG binding to chromatin. Hormone depleted VCaP cells were treated with 100 nM DHT for 0, 2, or 18 hrs. Cells were cross-linked with formaldehyde and chromatin was immunoprecipitated with antibodies against AR or ERG. Immunoprecipitated DNA was quantified with qPCR for specific binding sites and a randomly selected genomic location as control (ctrl) region. Error bars represent S.E.M of at least 3 independent experiments.
The human prostate cancer cell line, VCaP (American Type Culture Collection), was maintained in DMEM supplemented with 10% fetal bovine serum (FBS), sodium pyruvate, sodium bicarbonate, and penicillin/streptomycin at 37° C. under 5% CO2. Unless otherwise stated, for experiments requiring DHT (Tokyo Chemical Industry) treatment, VCaP cells were grown for 24 hours prior to stimulation in phenol red free DMEM supplemented with 10% charcoal-dextran stripped fetal bovine serum (CDFBS), sodium pyruvate, sodium bicarbonate, and penicillin/streptomycin.
Cells were harvested and total RNA was collected in TRI-reagent (Sigma) and purified with PureLink™ RNA Mini Kit (Invitrogen). Reverse transcription of RNA to cDNA was carried out using M-MLV reverse transcriptase (Promega). RNA expression levels were measured using quantitative PCR and normalized to GAPDH. The primers for cDNA quantification can be found in FIG. 9.
The antibodies used for western blot analysis include anti-AR (sc-816), anti ERG (sc-354), anti-Vinculin (sc-25336) from Santa Cruz, anti-AR (AR441) from Labvision, anti-HDAC1 (#05-100), anti-HDAC2 (#05-814) from Millipore, anti-HDAC3 (#3949) and anti-EZH2 (#3147) from Cell Signaling Technology.

Data set [4] has as its system VCaP cells. Nature of the data set: AR and ERG ChIP-qPCR in VCaP cells after DHT stimulation. The settings on record: 100 nM DHT. As to the method: as §5
(§6) ChIP assay was performed as described previously (47). Briefly, VCaP cells were fixed with 1% formaldehyde (Sigma-Aldrich) for 10 minutes prior to harvesting. Next, the cells were resuspended in SDS lysis buffer containing protease inhibitors. The lysed cells were then sonicated shearing the chromatin into 500-1000 base pairs in length. After pre-clearing with rabbit IgG (Santa Cruz Biotechnology) for 2 hours, the chromatin was immunoprecipitation overnight with the corresponding antibodies and Sepharose beads A (Zymed). After washing the beads, the captured DNA was eluted and de-crosslinked at 65° C. overnight prior to purification with QIAquick spin PCR purification kit (Qiagen). Real-time quantitative Polymerase Chain Reaction (qPCR) was carried out using the KAPA SYBR FAST qPCR kit (Kapa Biosystems).
All ChIP-qPCR primer sequences can be found in FIG. 8. […] Specifically, cells were first fixed with 2 mM DSG (Pierce) for 45 minutes prior to formaldehyde fixation. Antibodies that were used for ChIP analysis include anti-AR (sc-815x), anti-ERG (sc-353), anti-HDAC3 (sc-11417) from Santa Cruz Biotechnology, anti-HDAC1 (ab7028-50), anti-HDAC2 (ab7029-50) from Abcam, and anti-EZH2 (39933) from Active Motif.

Data set [5] deals with VCaP cells. As to the kind of experiment: HDAC1, HDAC2, HDAC3 and EZH2 ChIP-qPCR in VCaP cells before and after DHT treatment. The settings on record: 100 nM DHT, 2 hrs. As to the method:
FIG. 4. HDACs and EZH2 are recruited to AR binding sites. […] (B) Androgen-depleted VCaP cells were treated with either EtOH or 100 nM DHT for 2 hrs. The cells were then double crosslinked with DSG followed by formaldehyde. […] Error bars represent S.E.M of at least 3 independent experiments.
as §6
All ChIP-qPCR primer sequences can be found in FIG. 8. […] Specifically, cells were first fixed with 2 mM DSG (Pierce) for 45 minutes prior to formaldehyde fixation. […]

Turning to “siVCL: siRNA against VCL synthesized from 1stBase, rCrUrGrGrCrUrUrGrCrArGrArUrCrCrArArArUrUrU [SEQ ID NO.: 5] (CUGGCUUGCAGAUCCAAAUUU; RNA, backbone not given here)”, the “invasiveness of VCaP cells” value in the data set on VCaP cells [1] is “increased”. In the data set with VCaP cells [2], the “cell death (subG1 phase)” value is reported as “not due to differences” and the “cell proliferation (S phase, BrdU)” value is “not due to differences”.
Turning to `Nc1nccc2c1ncn2[C@@H]1C=C(CO)[C@@H](O)[C@H]1O` [DZNep, 3-deazaneplanocin A], the “expression of PSA and FKBP5” value in the data set with EZH2 is on record as “enhanced”.
Consider `CC(/C=C/C(=O)NO)=C\[C@@H](C)C(=O)c1ccc(N(C)C)cc1` [TSA, Trichostatin A], for which the “PSA and FKBP5 transcript levels” value is given as “repressive” in the data set on HDACs (high concentrations of TSA) and “enhanced” with HDACs (low concentrations of TSA).
With `C[C@]12CCC(=O)C[C@@H]1CC[C@@H]1[C@@H]2CC[C@]2(C)[C@@H](O)CC[C@@H]12` [DHT], in the data set on VCaP cells [3], the “mRNA and protein levels of ERG” value is on record as “up-regulated”; the “time of peak ERG RNA level” value is 6 h; the “time of peak ERG protein level” value stood at 12 h. In the data set on VCaP cells [3] (across time), the AR protein level result is listed as “remained relatively constant” and the “level of AR mRNA” value is listed as “repressed”. Further, in the data set with VCaP cells [4] (2 hrs), the “AR binding to the enhancer AR binding site (ARBS) of PSA” value was “recruited strongly”; the “ERG recruitment to the ARBS of PSA and the ERGBS associated with PLA1A” value is “recruited”. In the data set on VCaP cells [4] (18 hrs), the “AR binding to the enhancer AR binding site (ARBS) of PSA” value is listed as “reduced significantly”; the “ERG recruitment to the ARBS of PSA and the ERGBS associated with PLA1A” value is “further enhanced”. Also, the “recruitment of HDAC1, HDAC2, HDAC3 and EZH2 to AR and ERG co-localized binding sites” value with VCaP cells [5] is given as “in most cases enhanced”.
